Data taken from patent US11679113B2, “Anticancer treatment for uveal melanoma” (The Regents of the University of California, priority 2019, dated 2023).
“Also recorded” adds a separate entry of the source. Numbered stars: 1 amine (or outer) side, 2 acyl side, 3 side chain; on linkers, the order of the positions; unused ones are H or OH. Bridge positions count the residues as written; N and C are the ends. Square brackets hold non-standard residues; d marks the D form. Peptide text beside a SMILES is read from it. * marks the point of attachment. Leu(3R-OH,Nα-propionyl) = CCC(=O)N[C@H](C(=O)*)[C@H](O)C(C)C; X1 = CC(C)[C@@H](O[*:3])[C@H](N[*:1])C(=O)[*:2]; NMeT = CN[C@H](C(=O)O)[C@@H](C)O; dPhLac = O=C(O)[C@H](O)Cc1ccccc1; NMeA = CN[C@@H](C)C(=O)O; NMeDha = C=C(NC)C(=O)O

Tests used:
FAK [1] = experiment: Immunoblot of FAK phosphorylation (pY397-FAK) in UM cells; assay type: cell-based, human; settings: OMM1.3 / Mel270 cells
Description: (§1) Western blot assays were performed as described previously (Feng et al., 2014b). Western blots were developed using Immobilon Western Chemiluminescent HRP substrate (Millipore, MA) according to the manufacturer's instructions.

FAK [2] = experiment: Immunoblot of FAK phosphorylation in Gαq-DREADD expressing HEK293 cells stimulated with CNO; assay type: cell-based, human; settings: CNO stimulation, 1 hr pre-treatment
Description: as §1

[3] = test system: SK-MEL-28 cells (BRAF mutant SKCM); experiment: Cell viability assay in SKCM control cell line; assay type: cell-based, human
Description: (§2) HEK293 and HEK293T cells were cultured in DMEM (Sigma-Aldrich Inc., MO) containing 10% FBS (Sigma-Aldrich Inc., MO) and 1× antibiotic/antimycotic solution (Sigma-Aldrich Inc., MO). Culture conditions for UM cells (OMM1.3, OMM1.5, MEL202, Mel270 and 92.1) have been described elsewhere (Schmitt et al., 2007; Zuidervaart et al., 2005). SK-MEL-28 cells were purchased from ATCC and cultured following ATCC recommendations in EMEM containing 10% FBS. VS-4718 (PND-1186) was purchased from MedChemExpress (MCE) pre-prepared as a 10 mM solution in DMSO. FR900359 (FR) was graciously supplied by the lab of Dr. Evi Kostenis.
(§3) Cell growth assays were performed as described previously (Yamaguchi et al., 2016). Cells were cultured in 96-well-plate and treated with drugs for 72 hr. The manufacturer's instructions of Alamar Blue Cell Viability Reagent were followed to complete the assay.

[4] = test system: UM cell lines (92.1, OMM1.3, OMM1.5, Mel270, Mel202; GNAQ mutant); experiment: Cell viability assay (Alamar Blue) in UM cell lines; assay type: cell-based, human
Description: as §2, §3

ERK [5] = experiment: Immunoblot of ERK phosphorylation in UM cells; assay type: cell-based, human; settings: OMM1.3 cells
Description: as §1

OM cells = experiment: FAKi/MEKi combination cell viability, synergy by Chou-Talalay CI and Bliss score; assay type: cell-based, human
Source text: Applicant performed detailed combinatorial analysis achieving ERK pathway inhibition by a clinical MEK inhibitor, trametinib, combined with FAKi (VS-4718) at a series of dilutions of drug combinations. Drug combinations scored as synergistic (i. e., > than additive) are identified by using the most widely used methodologies: the Chou-Talalay combination index (CI) (Chou, 2010; Chou, 1984; and Chou, 2006) and the Bliss independence score (ΔBliss) (Chou, 2010; Chou, 2006; Berenbaum, 1989; Greco, 1995; and Geary, 2013) as Applicant recently described (Yamaguchi et al., 216).

[6] = after prolonged use; cited from earlier work
ERK [7] = experiment: Immunoblot of ERK phosphorylation in Gαq-DREADD expressing HEK293 cells stimulated with CNO; assay type: cell-based, human; settings: CNO stimulation, 1 hr pre-treatment
Description: as §1

UM tumor xenografts = experiment: Human UM tumor xenografts (Mel270, OMM1.3) with VS-4718 in vivo treatment; parameters: species or system mice
Description: All animal studies were carried out according the University of California San Diego (UCSD) Institutional Animal Care and Use Committee (IACUC)-approved protocol (S15195). Female NOD.Cg-Prkdcscid Il2rgtm1wjl/SzJ mice (commonly known as […], Jackson Laboratory, Maine), 6 to 8 weeks of age and weighing 18 to 20 g, were used in the study of UM cells, housed in appropriate sterile filter-capped cages, and provided food and water ad libitum. All procedures were essentially as previously described (Feng et al., 2014b; Schrage et al., 2015; Vaque et al., 2013). Briefly, exponentially growing cultures were harvested, washed, resuspended in RPMI 1640, and 2×10^6 viable cells were transplanted subcutaneously into the flanks of mice. For tumor growth analysis, tumor volume was assessed as [(LW^2/2); where L and W represent the length and the width of the tumor]. The animals were monitored twice weekly for tumor development. Results of animal experiments were expressed as mean±SEM of a total of tumors analyzed. To administer VS-4718 (Verastem Oncology; Needham, Mass.) to mice, 10 mg/ml VS-4718 was prepared in 0.5% carboxymethyl cellulose (CMC) (C5678, Sigma-Aldrich; St. Louis, Mo.) 0.1% Tween 80 (P1754, Sigma Aldrich; St. Louis, Mo.) in sterile water, 100 mg/kg administered via oral gavage twice daily, control group was treated with vehicle.
The following antibodies were used for immunohistochemistry anti-Ki67 (DAKO) and anti-YAP (CST). Unstained 5 μm paraffin sections were dewaxed in Safeclear II (Fisher Scientific, PA), hydrated through graded alcohols and distilled water, and washed three times with PBS. Antigens were retrieved using or 10 mM citrate buffer boiled in a microwave for 20 min (2 min at 100% power and 18 min at 10% power). The slides were allowed to cool down for 30 min at room temperature, rinsed twice with PBS, incubated in 3% hydrogen peroxide in PBS for 10 min to quench the endogenous peroxidase. […]

YAP = YAP nuclear/cytoplasmic localization (immunofluorescence, fractionation western blot) in UM cells; assay type: cell-based, human; settings: OMM1.3, 1 μM
Description: Cells cultured on coverslips were washed with PBS, fixed with 3.7% formaldehyde in phosphate-buffered saline (PBS) for 30 min, and permeabilized using 0.05% Triton X-100 for 10 min. Fixed cells were blocked with 3% FBS-containing PBS for 30 min, and incubated with YAP (Cell signaling technology, MI) antibody (in 3% FBS-PBS otherwise stated) for 1 hr at room temperature. The reaction was visualized with Alexa-labeled secondary antibodies (Invitrogen, CA). Samples were mounted in PBS buffer containing Hoechst 33342 (Molecular Probes, OR) for nuclear staining. Images were acquired with an Axio Imager Z1 microscope equipped with ApoTome system controlled by ZEN 2012 software (Carl Zeiss, NY).
Subcellular fractionated lysates were generated using NE-PER Nuclear and Cytoplasmic Extraction Reagents (Thermo Scientific, CO) following manufacturer instructions.

OMM1.3 cells [8] = experiment: Colony formation assay in semisolid media (3D culture); assay type: cell-based, human; settings: OMM1.3, semisolid media
Description: 3-dimensional cultures were performed as described previously (Tancioni et al., 2015). Briefly, 10,000 cells were embedded in 1% methylcellulose diluted in growth media and plated onto 6-well poly-hydroxyethyl methacrylic acid (poly-HEMA)-coated plates.

[9] = test system: Hippo pathway components (YAP, LATS1, MOB1, MST1); experiment: Immunoblot / immunoprecipitation of YAP and Hippo pathway components in UM cells; assay type: cell-based, human
Description: as §1
Cells were lysed with IP lysis buffer [10 mM Tris-Cl (pH 8.0), 150 mM NaCl, 1 mM EDTA, 0.3% CHAPS, 50 mM NaF, 1.5 mM Na3VO4, protease inhibitor (Thermo Scientific, CO), 1 mM DTT, 1 mM PMSF], and centrifuged at 16,000 g for 5 min at 4° C. Supernatants were incubated with first antibody for 1 hr at 4° C., and protein G or protein A conjugated resin for another 1 hr. Resins were then washed 3 times with lysis buffer and boiled in SDS-loading buffer.

YAP-signature genes = experiment: RNA-seq and Gene Set Enrichment Analysis of UM cells treated with FAKi; assay type: cell-based, human; settings: OMM1.3, 1 μM, 2 hr
Source text: FAK is at the intersection of multiple signaling pathways that promote cancer progression (Sulzmaier et al., 2014), but it is not clear which downstream targets of FAK play a critical role in UM. As an approach to identify key downstream targets of the Gαq− FAK signaling axis, Applicant performed transcriptomic RNA-sequencing on UM cells treated with FAKi (i.e., FAK inhibitor), and performed Gene Set Enrichment Analysis (GSEA) (Subramanian et al., 2005) to characterize the transcriptional effects of inhibiting Gαq and FAK at the pathway level using over 10,000 gene sets from the MSigDB (Molecular Signatures Database), including two sub-collections of oncogenic signatures and hallmark gene sets that Applicants added to the database (Liberzon et al., 2015). […] These include the downregulation of genes described as stimulated by KRAS and EGFR and cytokines such as IL21 and IL15, consistent with the likely role in the activation of growth promoting pathways by FAK (Sulzmaier et al., 2014). […] In both cases, FAK inhibition or knockdown reduced YAP pY357 and increased pS127, and reduced mRNA levels of YAP targets and YAP activity measured by luciferase reporter assay (FIGS. 7A-7E), similar to UM cells.

[10] = test system: YAP-target genes CTGF and CYR61; experiment: qPCR of YAP-target genes CTGF and CYR61 in UM cells; assay type: cell-based, human; settings: 1 μM, 2 hr
OMM1.3 cells [11] = experiment: Immunoblot of cleaved PARP (apoptosis) in UM cells; assay type: cell-based, human; settings: OMM1.3, 36 hr
Description: as §1

92.1 xenograft = experiment: 92.1 OM xenografts treated with MEKi, FAKi or both; assay type: in vivo, mice; settings: 92.1 xenografts; trametinib 1 mg/kg QD i.p., VS-4718 50 mg/kg BID p.o.
Source text: FIGS. 17A and 17B show potent antitumoral and cytotoxic effects of FAKi/MEKi combination in OM xenografts. […] (FIG. 17B) Quantification of IHC tumor sections stained for BrdU, cleaved-caspase3 (Cl-Casp3), pERK1/2, and YAP. For each panel, the bars from left to right are control, MEKi, FAKi and MEKi+FAKi. Data are mean±SEM (7 mice/group), *p<0.05;**p<0.01; ***p<0.001; n. s. not significant.

Compound: C[C@@H](N)[C@H]1CC[C@H](C(=O)Nc2ccncc2)CC1 [Y-27632]
- FAK activation (pY397-FAK) in UM cells (FAK [1]): repressed FAK activation
- FAK activation by Gαq-DREADD in HEK293 cells (FAK [2]): repressed FAK activation

Compound: C=C1C(=O)N[C@@H](C)C(=O)N(C)[C@@H](C)C(=O)N[C@@H]([C@H](OC(=O)[C@@H](NC(=O)CC)[C@H](O)C(C)C)C(C)C)C(=O)N(C)[C@@H]([C@@H](C)OC)C(=O)O[C@H](C(C)C)[C@H](NC(C)=O)C(=O)O[C@H](Cc2ccccc2)C(=O)N1C [FR900359] (Ac-[X1][dPhLac][NMeDha]A[NMeA][X1](Leu(3R-OH,Nα-propionyl))[NMeT](Me); ester 1-C)
- SKCM cell proliferation, result in words [3]: only in UM cells
- UM cell viability / proliferation, result in words ([4]; UM cell lines): inhibition of cell proliferation
- FAK activation (pY397-FAK) in UM cells (FAK [1]): diminished
- ERK activation in UM cells (ERK [5]): diminished

Compound: Cc1ccc2c(c1)C(=O)C1(O)CCN(c3ccccc3)C1=N2 (stereo not drawn) [blebbistatin]
- FAK activation (pY397-FAK) in UM cells (FAK [1]): repressed FAK activation
- FAK activation by Gαq-DREADD in HEK293 cells (FAK [2]): repressed FAK activation

Compound: CNS(=O)(=O)Nc1nccc(Cc2c(C)c3ccc(Oc4ncccn4)cc3oc2=O)c1F [CH5126766]
- synergy of growth inhibition in combination with FAKi VS-4718 (OM cells; combined with VS-4718): synergistic anti-proliferative effects
- synergy of anti-proliferative effect in combination with VS-6063 (defactinib) (OM cells; combined with VS-6063): synergistic anti-proliferative effects

Compound: verteporfin
- systemic toxicity [6]: high systemic toxicities

Compound: COc1ccc2c(c1)CC[C@@H]1[C@@H]2CC[C@]2(C)[C@@H](NCCCCCCN3C(=O)C=CC3=O)CC[C@@H]12 [U73122]
- ERK activation by Gαq-DREADD in HEK293 cells (ERK [7]): abolished
- FAK activation by Gαq-DREADD in HEK293 cells (FAK [2]): did not have an impact

Compound: CNC(=O)c1ccccc1Nc1cc(Nc2ccc(N3CCOCC3)cc2OC)ncc1C(F)(F)F [VS-4718]
- cytoplasmic retention of YAP in tumors (UM tumor xenografts; Mel270 tumors): clearly increased
- cell proliferation in UM tumors (Ki67) (UM tumor xenografts; two UM tumor models (Mel270, OMM1.3)): reduces
- UM tumor size (UM tumor xenografts; two UM tumor models (Mel270, OMM1.3), 100 mg/kg oral gavage twice daily): reduces
- YAP nuclear accumulation (YAP): clearly diminished
- EC50 ([3]; Homo sapiens, SK-MEK-28 (BRAF mutant), control): > 10 µM
- EC50 ([4]; Homo sapiens, 92.1, OMM1.3, OMM1.5, Mel270, Mel202, 72 hr, read-out: EC50, sensitivity of UM cell lines to FAK inhibition (cell viability)): ~1 µM
- FAK activation (pY397-FAK) in UM cells (FAK [1]): inhibited FAK rapidly; also recorded: decrease in pY397-FAK
- colony formation ability of UM cells (OMM1.3 cells [8]): nearly abolished the colony formation ability
- MOB1/LATS interaction [9]: enhanced
- p909-LATS1 [9]: increase
- p1079-LATS1 [9]: increase
- p-MST1 [9]: did not observe an increase
- pY26 MOB1 ([9]; 0-10 μM, 2 hr): dose-dependent decrease
- YAP phosphorylation on serine 127 (pS127-YAP) ([9]; listed as FAKi): increase
- YAP phosphorylation on tyrosine 357 (Y357) ([9]; listed as FAKi): repressed; also recorded: diminished phosphorylation
- total YAP protein level ([9]; long-term (up to 36 hours)): downregulation
- expression of YAP-signature genes (RNA-seq, GSEA) (YAP-signature genes): significant downregulation
- mRNA of YAP-target genes CTGF and CYR61 (qPCR) [10]: significant reduction
- cleaved PARP (UM apoptosis) (OMM1.3 cells [11]): accumulation of cleaved PARP; also recorded: increased cleaved PARP
- antitumoral profile in OM xenografts (cl-Casp3) (92.1 xenograft): cytostatic profile
